Like-named read-outs stand apart in the source and are kept apart here.
Assays:
[1] = Test 9: Toxicity Test (acute oral toxicity, mice); details: mouse, in vivo, po
Procedure: A predetermined amount of a solution or suspension of a test compound in corn oil was orally administered to male mice having a body weight of 19 to 23 g (0.2 ml per 10 g of the body weight). After 7 days, the number of killed mice was counted and the influences on the mice were examined.

tobacco cutworm [2] = assay: Test 2: Tobacco Cutworm Larva Dipping Test, mortality after 24 hours; assay type: in vivo; details: 24 hours
Procedure: (§1) To a mixture of 20 parts of the compound of the present invention and 20 parts of Sorpol SM-200 (registered tradename for the product supplied by Toho Chemical Industrial Co., Ltd.) was added 60 parts of xylol, and the mixture was suffciently blended. The obtained emulsifiable concentrate was diluted at a predetermined concentration with distilled water, and the obtained dilution was used.
A dilution having a chemical concentration of 100 or 20 ppm was prepared in the same manner as described in Test 1.
Second-instar and fifth-instar larvae of tobacco cutworm were dipped in the dilution for 5 seconds, and the excessive dilution was removed by a filter paper. Then, the larvae were set free in a plastic cup and an artificial diet was supplied thereto. The cup was allowed to stand still in a thermostat chamber maintained at 25° C. After 24 hours, the numbers of the killed and living larvae were counted and the mortality was calculated. The test was made on three cups and the result was expressed by an average value.

tobacco cutworm [3] = assay: Test 1: Effect on Tobacco Cutworm (leaf immersion), mortality after 24 hours; assay type: in vivo; details: second-instar larvae, 25° C
Procedure, shortened: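 Second-instar tobacco cutworm larvae were kept at 25 °C on air-dried sweet-potato leaves that had been immersed for 10 s in test dilutions of 100 or 20 ppm from an emulsifiable concentrate. Mortality was scored at 24 h as the mean of three cups.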

[4] = test system: resistant green rice leafhopper (collected at Nakagawara); assay: Test 3: Effect on Resistant Green Rice Leafhopper (collected at Nakagawara); assay type: in vivo, Nephotettix cincticeps Uhler (Green rice leafhopper); details: Nephotettix cincticeps, 24 h, read-out: Mortality (%), Green Rice Leafhopper Collected at Nakagawara
Procedure, shortened: (§2)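 Ten adult females per pot, either resistant (Nakagawara) or sensitive (Chigasaki), were caged on air-dried rice seedlings (2–3 leaves) sprayed at 3 ml/pot with 100 or 20 ppm of an emulsifiable concentrate dilution. Dead and living insects were counted after 24 hours; mortality is the mean of three pots.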

green peach aphid = assay: Test 5: Effect on Green Peach Aphid; assay type: in vivo; details: Myzus persicae, read-out: Insecticidal Activity
Procedure: as §1
Seedlings (having 3 to 4 leaves) of an eggplant grown on a pot were inoculated with green peach aphids and the insects were allowed to grow. The number of the insects was counted. A chemical dilution having a concentration of 100 ppm, prepared in the same manner as described in Test 1, was applied with a spray gun at a rate of 10 ml per pot. Then, the pot was placed in a glass green house. After 24 hours, the number of living insects was counted and the mortality was calculated.
The test was made on three pots, and the average value was calculated. In Table 6, mark "A" indicates a mortality higher than 95%, mark "B" indicates a mortality of 80 to 95%, mark "C" indicates a mortality of 50 to 80%, and mark "D" indicates a mortality lower than 50%.

[5] = test system: sensitive green rice leafhopper (collected at Chigasaki); assay: whole plant or invertebrate; assay type: in vivo; details: Nephotettix cincticeps, sensitive female adults, 24 hours, read-out: Mortality (%), Green Rice Leafhopper Collected at Chigasaki
Procedure, shortened: as §2

Test 8: Fish Toxicity = assay type: in vivo; details: carp, water; concentration at which 1/2 of the test fishes were killed within 48 hours; read-out: Fish Toxicity, TLm48
Procedure: A water tank having a width of 60 cm, a length of 30 cm and a height of 40 cm was filled with water, and 10 yearling carps having a body length of about 5 cm were set free in the tank and adapted to the environment in the tank. A test compound was applied so that the concentration in water was 10, 1 or 0.1 ppm. After 48 hours, the numbers of killed and living carps were counted and the influences on the fishes were examined.

diamond back moth = assay: Test 4: Effect on Diamond Back Moth; assay type: in vivo; details: Plutella, third-instar larvae, 24 hours, read-out: Mortality (%)
Procedure: as §1
Cabbage leaves were spread in a plastic cup, and 10 third-instar larvae of diamond back moth were set free in the cup.
A chemical dilution having a concentration of 100 or 20 ppm, prepared in the same manner as described in Test 1, was applied from an applicator at a rate of 3 ml per cup.
After scattering of the chemical dilution, the cup was covered, and after 24 hours, the numbers of killed and living larvae were counted and the mortality was calculated. The test was made on three cups and the average value was calculated.

German cockroach = assay: Test 7: Effect on German Cockroach; assay type: in vivo; details: Blattella germanica, male adults, agonized and killed after 24 hours, read-out: Mortality (%); for mortality at 10 mg/m2: 10 mg/m^2; for mortality at 50 mg/m2: 50 mg/m^2
Procedure: as §1
The bottom face of a high Petri dish having a diameter of 9 cm and a height of 9 cm was treated with 50 or 10 mg/m^2 of a test compound and the dish was air-dried. In order to prevent the adults from escaping from the dish, the inner wall of the dish was treated with butter. Then, 10 male adults of German cockroach were set free in each dish, and the dish was placed in a thermostat chamber maintained at 25° C. After 24 hours, the number of agonized and killed adults was counted. The test was made on two dishes and the average value was calculated.

[6] = fifth-instar larvae, read-out: Motality (%), Fifth-Instar Larvae
[7] = second-instar larvae, read-out: Motality (%), Second-Instar Larvae
[8] = 100 ppm, mortality class, 24 hours

Compound | LD50 at 168 h [1] [mg/kg] | mortality at 20 ppm (tobacco cutworm [2]; [6]) [%] | mortality at 20 ppm (tobacco cutworm [2]; [7]) [%] | mortality at 100 ppm (tobacco cutworm [2]; [6]) [%] | mortality at 100 ppm (tobacco cutworm [2]; [7]) [%] | mortality at 20 ppm (tobacco cutworm [3]) [%] | mortality at 100 ppm (tobacco cutworm [3]) [%] | mortality at 20 ppm [4] [%] | mortality at 100 ppm [4] [%] | mortality at 100 ppm (green peach aphid; [8]) [%] | mortality at 20 ppm [5] [%] | mortality at 100 ppm [5] [%] | LC50 at 48 h (Test 8: Fish Toxicity) [µg/mL] | mortality at 20 ppm (diamond back moth) [%] | mortality at 100 ppm (diamond back moth) [%] | mortality at 10 mg/m2 (German cockroach) [%] | mortality at 50 mg/m2 (German cockroach) [%] | mortality at 100 ppm (green peach aphid; 24 h) [%]
Cc1ccc(C(C)(C)COCc2cccc(Oc3ccc(F)cc3)c2)cc1 [Compound 3, 3-(4-Fluorophenoxy)benzyl 2-(4-methylphenyl)-2-methylpropyl ether] | > 500 | 60 | 70 | 70 | 90 | 83 | 100 | 100 | 100 | > 95 | 100 | 100 |  |  |  |  |  | 
CC(C)(COCc1cccc(Oc2ccc(Br)cc2)c1)c1ccc(OC(F)F)cc1 [Compound 30, 3-(4-Bromophenoxy)benzyl 2-(4-difluoromethoxyphenyl)-2-methylpropyl ether] | > 500 |  |  |  |  | 80 | 100 | 100 | 100 |  | 100 | 100 | > 1 | 70 | 100 |  |  | 
CC(C)(COCc1cccc(C(=O)c2ccccc2)c1)c1ccc(Cl)cc1 [Compound 22, 3-Benzoylbenzyl 2-(4-chlorophenyl)-2-methylpropyl ether] | > 500 |  |  |  |  |  |  | 80 | 100 |  | 50 | 100 | > 10 |  |  | 90 | 100 | 
CCOc1ccc(C(C)(CC)COCc2cccc(Oc3ccccc3)c2)cc1 (stereo not shown) [Compound 103, 3-Phenoxybenzyl 2-(4-ethoxyphenyl)-2-ethylpropyl ether] | > 500 |  |  |  |  | 100 | 100 | 100 | 100 | > 95 | 100 | 100 |  |  |  |  |  | 
CCOc1ccc(C(C)(C)CSCc2cccc(Oc3ccccc3)c2)cc1 [Compound 95] | > 500 |  |  |  |  | 100 | 100 | 100 | 100 | > 95 | 100 | 100 |  |  |  |  |  | 
COP(=O)(NC(C)=O)SC (stereo not shown) [Comparative Compound (h), O,S-dimethyl N-acetylphosphoroamidothiolate, reference compound] |  |  |  |  |  |  |  |  |  |  |  |  |  |  |  |  |  | 80 to 95
CCOc1ccc(C(C)(C)COCc2cccc(Oc3ccccc3)c2)cc1Cl [Compound 78, 3-Phenoxybenzyl 2-(3-chloro-4-ethoxyphenyl)-2-methylpropyl ether] | > 500 |  |  |  |  | 100 | 100 | 100 | 100 | > 95 | 100 | 100 |  | 100 | 100 |  |  | 
CC(C)(COCc1cccc(Oc2ccc(Br)cc2)c1)c1ccc(Cl)cc1 [Compound 4, 3-(4-Bromophenoxy)benzyl 2-(4-chlorophenyl)-2-methylpropyl ether] | > 500 | 70 | 90 | 80 | 90 | 95 | 100 | 70 | 100 |  | 50 | 100 | > 10 | 100 | 100 |  |  | 
CC(C)(CSCc1cccc(Oc2ccc(Br)cc2)c1)c1ccc(Cl)cc1 [Compound 37] | > 500 |  |  |  |  | 100 | 100 | 70 | 100 |  | 50 | 100 | > 10 | 100 | 100 |  |  | 
CC(C)(COCc1cccc(Oc2ccccc2)c1)c1ccc2ccccc2c1 [Compound 31, 3-Phenoxybenzyl 2-(2-naphthyl)-2-methylpropyl ether] | > 500 |  |  |  |  |  |  | 100 | 100 |  | 100 | 100 | > 10 |  |  | 100 | 100 | 
CCC(C)(COCc1cccc(Oc2ccc(F)cc2)c1)c1ccc(F)cc1 (stereo not shown) [Compound 2, 3-(4-fluorophenoxy)benzyl 2-(4-fluorophenyl)-2-methylbutyl ether] | > 500 |  |  |  |  | 90 | 100 | 95 | 100 |  | 80 | 100 | > 1 | 100 | 100 |  |  | 
CCOc1ccc(C(C)(C)COCc2cccc(Oc3ccccc3)c2)cc1OCC [Compound 93, 3-Phenoxybenzyl 2-(3,4-diethoxyphenyl)-2-methylpropyl ether] | > 500 |  |  |  |  | 100 | 100 | 100 | 100 | > 95 | 75 | 100 |  |  |  | 100 | 100 | 
C#Cc1ccc(C(C)(C)COCc2cccc(Oc3ccccc3)c2)cc1 [Compound 96, 3-Phenoxybenzyl 2-(4-ethynylphenyl)-2-methylpropyl ether] | > 500 |  |  |  |  |  |  | 90 | 100 | 80 to 95 | 60 | 100 |  |  |  |  |  | 
COC(C)c1ccc(C(C)(C)COCc2cccc(Oc3ccccc3)c2)cc1 (stereo not shown) [Compound 86, 3-Phenoxybenzyl 2[4-(1-methoxyethyl)phenyl]-2-methylpropyl ether] | > 500 |  |  |  |  |  |  |  |  | 80 to 95 |  |  |  |  |  |  |  | 
CC(C)(COCc1cccc(Oc2ccccc2)c1)c1cccc(C(F)(F)F)c1 [Compound 39, 3-Phenoxybenzyl 2-(3-trifluoromethylphenyl)-2-methylpropyl ether] | > 500 |  |  |  |  | 90 | 100 | 100 | 100 | > 95 | 100 | 100 |  |  |  | 90 | 100 | 

Source: patent publication US4570005A, “Process for the preparation of 2-arylpropyl ether or thioether derivatives” (priority 1980, dated 1986)
